Assay results reported in the supplement of paper PMC10627819.

Assays:
B. subtilis 168 [1] = assay: fitness (endpoint OD595 vs no drug) (fraction); higher = more growth
Summary of the method: (§1)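 Plates with 384 wells were inoculated at OD595 0.01 using 30 µl of TSB, LB Lennox or CY, or 55 µl for S. pneumoniae. Incubation was at 37 °C, with OD595 measured every 30 min for 14 h. Fitness is the stationary-phase transition optical density over the robust mean of no-drug control wells, after first-reading background subtraction; it is capped at 1.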

S. aureus DSM 20231 [2] = assay: as above
Summary of the method: as §1

S. pneumoniae D39V [3] = assay: as above
Summary of the method: as §1

S. aureus Newman = assay: Bliss interaction score (quartile over a dose matrix) (fitness difference); higher = more antagonism (negative = synergy)
Summary of the method: (§2)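 Each plate was normalised to the robust mean of its own no-drug wells, using OD595 at entry into stationary phase, with values capped at 1. This normalised growth is the fitness value. The Bliss score is the difference between observed and product-expected fitness, with single-drug fitness inferred from the combination data and quartiles taken over technical, biological and donor/recipient replicates.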

B. subtilis 168 [4] = assay: as above
Summary of the method: as §2

S. aureus DSM 20231 [5] = assay: as above
Summary of the method: as §2

S. pneumoniae D39V [6] = assay: as above
Summary of the method: as §2

[7] = first compound 0.125 µg/mL, partner 0.0625 µg/mL
[8] = first compound 0.125 µg/mL, partner 0.125 µg/mL
[9] = first compound 0.125 µg/mL, partner 0.25 µg/mL
[10] = first compound 0.25 µg/mL, partner 0.0625 µg/mL
[11] = first compound 0.25 µg/mL, partner 0.125 µg/mL
[12] = first compound 0.25 µg/mL, partner 0.25 µg/mL
[13] = first compound 0.5 µg/mL, partner 0.0625 µg/mL
[14] = first compound 0.5 µg/mL, partner 0.125 µg/mL
[15] = first compound 0.5 µg/mL, partner 0.25 µg/mL
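Throughout, for Bliss interaction score (quartile over a dose matrix): first quartile when negative (synergy) and third quartile when positive (antagonism).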

`CC(=O)NC[C@H]1CN(c2ccc(N3CCOCC3)c(F)c2)C(=O)O1` [Linezolid] + CC1=C\[C@@H](O)CC(=O)Cc2nc(co2)C(=O)N2CCC=C2C(=O)O[C@H](C(C)C)[C@H](C)/C=C/C(=O)NC\C=C\1 [Virginiamycin M1] showed a fitness (B. subtilis 168 [1]; first compound 0.0625 µg/mL, partner 0.0625 µg/mL, one replicate) of 0.851, a fitness (B. subtilis 168 [1]; first compound 0.0625 µg/mL, partner 0.125 µg/mL, one replicate) of 0.915 and a fitness (B. subtilis 168 [1]; first compound 0.0625 µg/mL, partner 0.25 µg/mL, one replicate) of 0.879. The fitness (B. subtilis 168 [1]; [7]) was 0.57, the fitness (B. subtilis 168 [1]; [8]) was 0.572 and the fitness (B. subtilis 168 [1]; [9]) was 0.578. For the same compound, the fitness (B. subtilis 168 [1]; [10]) was 0.0596, the fitness (B. subtilis 168 [1]; [11]) was 0.0652 and the fitness (B. subtilis 168 [1]; [12]) was 0.0843. For the same compound, the fitness (B. subtilis 168 [1]; [13]) was 0.0436, the fitness (B. subtilis 168 [1]; [14]) was 0.0429 and the fitness (B. subtilis 168 [1]; [15]) was 0.0502. The fitness (S. aureus DSM 20231 [2]; [7]) was 0.884, the fitness (S. aureus DSM 20231 [2]; [8]) was 0.951 and the fitness (S. aureus DSM 20231 [2]; [9]) was 0.826. The fitness (S. aureus DSM 20231 [2]; first compound 0.125 µg/mL, partner 0.5 µg/mL, one replicate) was 0.873, the fitness (S. aureus DSM 20231 [2]; first compound 0.125 µg/mL, partner 1 µg/mL, one replicate) was 0.759 and the fitness (S. aureus DSM 20231 [2]; [10]) was 0.589. It also gave a fitness (S. aureus DSM 20231 [2]; [11]) of 0.614, a fitness (S. aureus DSM 20231 [2]; [12]) of 0.638 and a fitness (S. aureus DSM 20231 [2]; first compound 0.25 µg/mL, partner 0.5 µg/mL, one replicate) of 0.675. It also gave a fitness (S. aureus DSM 20231 [2]; first compound 0.25 µg/mL, partner 1 µg/mL, one replicate) of 0.63, a fitness (S. aureus DSM 20231 [2]; [13]) of 0.186 and a fitness (S. aureus DSM 20231 [2]; [14]) of 0.156. The fitness (S. aureus DSM 20231 [2]; [15]) was 0.196, the fitness (S. aureus DSM 20231 [2]; first compound 0.5 µg/mL, partner 0.5 µg/mL, one replicate) was 0.262 and the fitness (S. aureus DSM 20231 [2]; first compound 0.5 µg/mL, partner 1 µg/mL, one replicate) was 0.296. For the same compound, the fitness (S. aureus DSM 20231 [2]; first compound 1 µg/mL, partner 0.0625 µg/mL, one replicate) was 0.0385, the fitness (S. aureus DSM 20231 [2]; first compound 1 µg/mL, partner 0.125 µg/mL, one replicate) was 0.0443 and the fitness (S. aureus DSM 20231 [2]; first compound 1 µg/mL, partner 0.25 µg/mL, one replicate) was 0.0419. For the same compound, the fitness (S. pneumoniae D39V [3]; first compound 0.105 µg/mL, partner 0.5 µg/mL) was 0.849, the fitness (S. pneumoniae D39V [3]; first compound 0.105 µg/mL, partner 1 µg/mL) was 0.881 and the fitness (S. pneumoniae D39V [3]; first compound 0.105 µg/mL, partner 2 µg/mL) was 0.856. It also gave a fitness (S. pneumoniae D39V [3]; first compound 0.2 µg/mL, partner 0.15 µg/mL, one replicate) of 0.829, a fitness (S. pneumoniae D39V [3]; first compound 0.2 µg/mL, partner 0.3 µg/mL, one replicate) of 0.825 and a fitness (S. pneumoniae D39V [3]; first compound 0.2 µg/mL, partner 0.5 µg/mL, one replicate) of 0.861. The fitness (S. pneumoniae D39V [3]; first compound 0.2 µg/mL, partner 1 µg/mL, one replicate) was 0.81, the fitness (S. pneumoniae D39V [3]; first compound 0.2 µg/mL, partner 2 µg/mL) was 0.775 and the fitness (S. pneumoniae D39V [3]; first compound 0.21 µg/mL, partner 0.5 µg/mL) was 0.763. The fitness (S. pneumoniae D39V [3]; first compound 0.21 µg/mL, partner 1 µg/mL) was 0.756, the fitness (S. pneumoniae D39V [3]; first compound 0.21 µg/mL, partner 2 µg/mL) was 0.769 and the fitness (S. pneumoniae D39V [3]; first compound 0.4 µg/mL, partner 0.15 µg/mL, one replicate) was 0.738. The fitness (S. pneumoniae D39V [3]; first compound 0.4 µg/mL, partner 0.3 µg/mL, one replicate) was 0.721, the fitness (S. pneumoniae D39V [3]; first compound 0.4 µg/mL, partner 0.5 µg/mL, one replicate) was 0.785 and the fitness (S. pneumoniae D39V [3]; first compound 0.4 µg/mL, partner 1 µg/mL, one replicate) was 0.67. The fitness (S. pneumoniae D39V [3]; first compound 0.4 µg/mL, partner 2 µg/mL) was 0.677, the fitness (S. pneumoniae D39V [3]; first compound 0.42 µg/mL, partner 0.5 µg/mL) was 0.496 and the fitness (S. pneumoniae D39V [3]; first compound 0.42 µg/mL, partner 1 µg/mL) was 0.486. For the same compound, the fitness (S. pneumoniae D39V [3]; first compound 0.42 µg/mL, partner 2 µg/mL) was 0.39, the fitness (S. pneumoniae D39V [3]; first compound 0.8 µg/mL, partner 0.15 µg/mL, one replicate) was 0.546 and the fitness (S. pneumoniae D39V [3]; first compound 0.8 µg/mL, partner 0.3 µg/mL, one replicate) was 0.577. It also gave a fitness (S. pneumoniae D39V [3]; first compound 0.8 µg/mL, partner 0.5 µg/mL, one replicate) of 0.562, a fitness (S. pneumoniae D39V [3]; first compound 0.8 µg/mL, partner 1 µg/mL, one replicate) of 0.376 and a fitness (S. pneumoniae D39V [3]; first compound 0.8 µg/mL, partner 2 µg/mL) of 0.458. The Bliss interaction score (S. aureus Newman) was 0.0286, the Bliss interaction score (B. subtilis 168 [4]) was 0.0733 and the Bliss interaction score (S. aureus DSM 20231 [5]) was 0.0505. It also gave a Bliss interaction score (S. pneumoniae D39V [6]) of -0.0638.
